Assay results published in US11214779B2, “Activatable CRISPR/CAS9 for spatial and temporal control of genome editing” (University of Pittsburgh—Of the Commonwealth System of …, priority 2015, dated 2022).

System: pIRG dual reporter in HEK 293T cells
Assay: Small molecule activation of Cas9-OABK in live cells (DsRed/EGFP dual reporter assay)
Format: cell-based, human
Conditions: for Concentration dependence of EGFP expression (activation of gene editing): varying concentrations (0-500 μM) of phosphine, Cas9-OABK
Experimental: HEK 293T cells were seeded into a 96-well cell culture microplate (Greiner), and incubated overnight in DMEM growth media supplemented with 10% FBS and 1% penicillin/streptomycin at 37° C. in 5% CO2 humidified atmosphere. Before transfection, media was replaced with antibiotics-free DMEM supplemented with or without OABK (0.25 mM). Quadruple transfections were carried out with linear PEI using pMbOABKRS-wtCas9 or pMbOABKRS-Cas9-K866TAG, p4CMVE-U6-PylT (Gautier et al., J Am Chem Soc 132, 4086-4088, 2010), gRNA plasmids (Hemphill et al., J Am Chem Soc 137, 5642-5645, 2015), and pRG dual reporter plasmid ((Hemphill et al., J Am Chem Soc 137, 5642-5645, 2015)) (100 ng of each). After a 24 h incubation, cells were washed with fresh DMEM and incubated for 2 h. For regulating gene editing in live cells, HEK 293T cells were treated with 5 (0.5 mM) or without 5. After overnight incubation, media was replaced with DMEM without phenol red, and cells were imaged on a Zeiss Observer Z1 microscope (10× objective, NA 0.8 plan-apochromat) with EGFP BP470/40; Em: BP525/50) and DsRed BP550/25; Em: BP605/70) filter cubes. Fluorescent cell counting was performed on a Nikon A1 confocal microscope (10× objective) and analyzed using Elements software.
The function of Cas9-OABK in the absence and presence of phosphine derivatives 5 and 6 (see FIG. 14) was investigated using a DsRed/EGFP dual reporter assay (FIG. 15A). […] Once Cas9-OABK is activated by the small molecule phosphine, the complex of functional Cas9 and gRNAs induces excision of the DsRed-terminator cassette, followed by NHEJ repair, and leading to EGFP expression.

SMILES	Concentration dependence of EGFP expression (activation of gene editing)	Effective concentration of phosphine for activation of Cas9-OABK (live HEK 293T cells, concentrations 0-500 μM tested) [µM]
O=C(O)c1ccccc1P(c1ccccc1)c1ccccc1 [compound 5, 2-(diphenylphosphino)benzoic acid]	dose-dependent	
NC(=O)c1ccccc1P(c1ccccc1)c1ccccc1 [compound 6, 2-(diphenylphosphino)benzamide]	dose-dependent	25
